The source of these data is article PMC10975748.

Data set [1] has as its system anti-TTX monoclonal antibody. In kind it is binding.
The conditions of data set [2]: analogues purified from pufferfish liver; patch clamp. On the technique in general: In patch-clamp work, channel activity is measured electrically.
For data set [3], the system named is isolated mouse phrenic-nerve-hemi-diaphragm muscle preparations. The data set can be described thus: Nerve-evoked isometric contraction, reversal of CiTX neuromuscular block. Particulars: 100 µM, in continuous presence of GYM-A, PnTX-A, PnTX-G or PteTX-1.
For data set [4], the target named is T1, muscle-type α12βεδ nAChRs (Mus musculus, UniProt P02716+P04756+P20782).
T1 construct: skeletal muscle expressing α12βεδ nAChRs; from tissue; host or cells: isolated mouse phrenic-nerve-hemi-diaphragm muscle
T1 sequence (P09690 24-501): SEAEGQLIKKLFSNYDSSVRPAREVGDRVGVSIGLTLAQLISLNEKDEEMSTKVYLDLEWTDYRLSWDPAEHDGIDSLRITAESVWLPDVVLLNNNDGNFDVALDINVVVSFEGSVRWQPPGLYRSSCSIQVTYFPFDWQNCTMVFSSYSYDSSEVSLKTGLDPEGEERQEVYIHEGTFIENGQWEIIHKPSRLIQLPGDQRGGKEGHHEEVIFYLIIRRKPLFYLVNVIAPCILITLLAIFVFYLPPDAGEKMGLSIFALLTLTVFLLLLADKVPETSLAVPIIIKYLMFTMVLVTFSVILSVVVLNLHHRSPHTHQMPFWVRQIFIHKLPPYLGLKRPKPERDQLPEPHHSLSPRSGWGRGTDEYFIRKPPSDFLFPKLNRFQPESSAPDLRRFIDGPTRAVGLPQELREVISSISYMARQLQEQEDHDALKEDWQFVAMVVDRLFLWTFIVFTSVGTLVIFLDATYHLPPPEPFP
T1 sequence (P02716 25-520): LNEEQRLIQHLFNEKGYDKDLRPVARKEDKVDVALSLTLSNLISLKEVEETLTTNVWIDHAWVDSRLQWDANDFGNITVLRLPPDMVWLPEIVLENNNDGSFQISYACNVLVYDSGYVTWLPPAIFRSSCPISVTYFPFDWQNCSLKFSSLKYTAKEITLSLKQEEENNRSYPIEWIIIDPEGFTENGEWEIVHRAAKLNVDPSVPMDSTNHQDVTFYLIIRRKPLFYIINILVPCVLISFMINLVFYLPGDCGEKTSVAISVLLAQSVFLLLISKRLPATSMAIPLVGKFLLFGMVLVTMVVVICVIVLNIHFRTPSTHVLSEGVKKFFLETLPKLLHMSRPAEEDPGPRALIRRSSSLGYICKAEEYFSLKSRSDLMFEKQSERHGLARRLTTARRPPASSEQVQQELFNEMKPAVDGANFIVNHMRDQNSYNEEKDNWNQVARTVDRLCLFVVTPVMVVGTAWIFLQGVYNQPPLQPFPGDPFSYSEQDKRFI
T1 sequence (P04756 21-457): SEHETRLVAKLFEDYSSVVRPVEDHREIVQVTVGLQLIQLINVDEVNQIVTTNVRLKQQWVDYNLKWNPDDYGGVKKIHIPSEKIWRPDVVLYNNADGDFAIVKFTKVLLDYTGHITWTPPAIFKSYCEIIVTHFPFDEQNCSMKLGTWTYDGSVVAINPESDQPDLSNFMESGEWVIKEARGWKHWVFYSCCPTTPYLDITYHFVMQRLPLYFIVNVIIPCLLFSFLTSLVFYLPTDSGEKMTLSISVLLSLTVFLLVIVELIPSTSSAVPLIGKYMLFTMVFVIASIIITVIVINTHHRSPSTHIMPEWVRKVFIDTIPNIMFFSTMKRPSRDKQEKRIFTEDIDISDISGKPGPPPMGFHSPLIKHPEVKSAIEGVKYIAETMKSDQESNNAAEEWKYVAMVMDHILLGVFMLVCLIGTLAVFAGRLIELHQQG
T1 sequence (P20782 21-493): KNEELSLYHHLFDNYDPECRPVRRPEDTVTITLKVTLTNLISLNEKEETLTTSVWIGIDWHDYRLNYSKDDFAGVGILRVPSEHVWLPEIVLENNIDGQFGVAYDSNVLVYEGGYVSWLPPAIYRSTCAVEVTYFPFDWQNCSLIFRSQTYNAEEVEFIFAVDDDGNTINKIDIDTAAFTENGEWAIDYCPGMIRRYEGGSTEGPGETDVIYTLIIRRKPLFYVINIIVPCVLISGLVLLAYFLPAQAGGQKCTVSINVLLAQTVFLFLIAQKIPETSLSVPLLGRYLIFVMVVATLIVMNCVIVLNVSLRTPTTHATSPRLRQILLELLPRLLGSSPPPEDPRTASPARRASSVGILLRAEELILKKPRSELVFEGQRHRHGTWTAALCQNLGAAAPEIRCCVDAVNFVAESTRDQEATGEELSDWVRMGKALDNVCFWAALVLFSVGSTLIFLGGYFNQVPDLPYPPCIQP
The data set can be described thus: Nerve-evoked isometric contraction, block by cyclic imine toxins.

The subject of data set [5] is mice injected with venoms. As to the kind of experiment: Recovery from neuroparalysis in mice injected with neurotoxic snake venoms. In kind it is in vivo. An excerpt:
(§1) Abstract: Envenomation by snakes is a major neglected human disease even though it affects millions of people with sequelae and kills hundreds of thousands of them. A large toll is taken by snakes that inject neurotoxic venoms capable of inducing complete degeneration of motor axon terminals with rapid development of a peripheral neuroparalysis with severe respiratory deficit. The major venom component causing this degeneration are presynaptic acting PLA2s that hydrolyse phospholipids in lysophospholipids and fatty acids that induce large entry of Ca^2+ into the neuronal cytosol. This leads to the activation of endogenous hydrolases that cause a complete degeneration of the motor axon terminals, which is followed by a regeneration program, only partially known in molecular terms. We recently identified two types of membrane receptors involved in the regeneration of the paralysed neuromuscular junction (NMJ). Here we report that this paralysis activates a proregenerative molecular axis, consisting of the CXCR4 receptor expressed at the stump of degenerated motor axon terminals and by the release of its ligand CXCL12α by surrounding Schwann cells. […]

From the text in data set [6]: as §1
Data set [7] relates to serotonin, histamine, opioid and nicotinic receptors, TRP channels or voltage-gated sodium, potassium or calcium channels. As to the kind of experiment: Selectivity of OS on other receptors and channels. The class given is cell-based.
Another data set deals with mice. As to the kind of experiment: In vivo evaluation of OS on brain-related neurological functions.
The target in the next data set is T2, CB1 receptors (Homo sapiens, UniProt P21554).
T2 construct: expressed in transfected cells; host or cells: Xenopus laevis oocytes
T2 sequence (P21554 whole entry): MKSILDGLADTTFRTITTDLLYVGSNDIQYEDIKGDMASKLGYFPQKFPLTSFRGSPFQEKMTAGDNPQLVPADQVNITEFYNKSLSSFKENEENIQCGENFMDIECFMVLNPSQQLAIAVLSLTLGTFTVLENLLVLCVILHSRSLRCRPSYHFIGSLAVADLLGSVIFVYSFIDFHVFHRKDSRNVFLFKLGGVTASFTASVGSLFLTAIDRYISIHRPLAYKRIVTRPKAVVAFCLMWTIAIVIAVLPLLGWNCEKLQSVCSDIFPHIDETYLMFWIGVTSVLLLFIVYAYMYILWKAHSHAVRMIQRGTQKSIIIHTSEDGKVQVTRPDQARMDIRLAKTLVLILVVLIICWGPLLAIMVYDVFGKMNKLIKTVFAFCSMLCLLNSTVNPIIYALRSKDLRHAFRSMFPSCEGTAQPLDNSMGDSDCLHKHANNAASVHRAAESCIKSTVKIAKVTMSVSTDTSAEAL
The data set can be described thus: Two-electrode voltage-clamp, CB1-GIRK1/2-RGS4 system in Xenopus laevis oocytes. Particulars: GIRK1/2 currents induced by WIN55,212-2, Xenopus oocytes. In kind it is cell-based. An excerpt: (§2) Abstract: Cannabinoid receptors (CB1 and CB2) are promising targets for diverse diseases, such as pain, inflammation, and neurological diseases. However, only a few ligands of CB receptors have reached clinical application so far. In the present study, we focused on the venom of Stephanoconus snails and found an endocannabinoid-like molecule, oleoyl serotonin (OS), active on CB1 and CB2. To determine the effects of OS, CB1 and CB2 receptors were functionally expressed in Xenopus laevis oocytes, together with the G protein-coupled inwardly rectifier potassium channels (GIRK1/2), and a regulator of G protein signalling (RGS4). Ion currents were measured with a two-electrode voltage-clamp system. […] To the best of our knowledge, OS is the first venom-derived ligand modulating CB receptors. […]. To investigate the critical domains of the CB receptor for OS activity, we constructed a chimeric CB1/2 receptor by replacing the transmembrane domain V (TMV)-intracellular loop 3 (ICL3)-TMVI domain (TMV-ICL3-TMVI) of the CB2 receptor with that of the CB1 receptor. […] This study highlights the potential of animal venom components as a promising library for the discovery of novel CB receptor ligands.
(In general: Two-electrode voltage clamp holds a large cell at a set potential and records current.)

The next data set addresses T3, CB2 receptors (Homo sapiens, UniProt P34972).
T3 construct: expressed in transfected cells; host or cells: Xenopus laevis oocytes
The data set can be described thus: Two-electrode voltage-clamp, CB2 with GIRK1/2 and RGS4 in Xenopus laevis oocytes. In kind it is cell-based. The conditions noted are these: GIRK1/2, RGS4.
From the text: as §2

In another data set the target is human mitoTRPV1 (Homo sapiens, UniProt Q8NER1). The class given is cell-based.
Chain of human mitoTRPV1 (Q8NER1 434-839): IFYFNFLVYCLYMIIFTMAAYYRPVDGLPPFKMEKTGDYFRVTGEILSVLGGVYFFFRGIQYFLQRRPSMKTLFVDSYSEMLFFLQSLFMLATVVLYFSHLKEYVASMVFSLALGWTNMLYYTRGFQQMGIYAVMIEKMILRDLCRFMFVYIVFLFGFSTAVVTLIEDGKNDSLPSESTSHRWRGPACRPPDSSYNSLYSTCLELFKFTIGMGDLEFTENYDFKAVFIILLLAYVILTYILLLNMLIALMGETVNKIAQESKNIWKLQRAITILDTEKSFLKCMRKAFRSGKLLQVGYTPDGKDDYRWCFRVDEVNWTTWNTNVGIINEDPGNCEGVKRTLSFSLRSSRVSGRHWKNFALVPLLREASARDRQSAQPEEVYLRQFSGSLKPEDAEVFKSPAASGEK

T3 sequence (P34972 whole entry): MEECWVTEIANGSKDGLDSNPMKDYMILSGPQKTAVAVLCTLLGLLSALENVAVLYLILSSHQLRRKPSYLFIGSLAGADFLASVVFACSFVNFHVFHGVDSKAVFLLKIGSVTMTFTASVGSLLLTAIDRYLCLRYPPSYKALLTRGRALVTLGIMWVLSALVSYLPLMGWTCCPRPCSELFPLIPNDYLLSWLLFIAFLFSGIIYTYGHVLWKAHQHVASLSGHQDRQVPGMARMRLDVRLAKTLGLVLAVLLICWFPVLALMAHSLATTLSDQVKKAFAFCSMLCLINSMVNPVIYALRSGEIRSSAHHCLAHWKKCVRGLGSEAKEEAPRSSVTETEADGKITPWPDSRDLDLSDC

For the compound 5,6,11-trideoxyTTX, the “cross-reactivity (cross-reactivity factors, CRFs)” value in data set [1] is “lower”. In addition, the “toxicity (toxicity equivalency factors, TEFs)” value in [2] was “lower”. In the case of 5,11-dideoxyTTX, in data set [1], the “cross-reactivity (cross-reactivity factors, CRFs)” value is on record as “lower”.

Turning to `Nc1ccncc1N` [3,4-DAP, 3,4-Diaminopyridine], the “reversal of neuromuscular block caused by the CiTX” value in data set [3] is on record as “completely reverses”. Regarding `CC1=C[C@@H](C2=C(C)[C@@H]3/C=C(\C)[C@@H](O)CC[C@@H]4C[C@@H](C)[C@@H](O4)/C(C)=C/CCC4=NCCC[C@@]43CC2)OC1=O` [GYM-A], in [4], the “type of inhibition of α12βεδ nAChRs” value is “competitive and reversible inhibitors”. `CCCn1nc(C(=O)N2CCCCC2)c2c1CCC(NCCc1ccncc1)C2` (centres unmarked) [NUCC-390]: the “time of recovery from neuroparalysis” value in data set [5] (determined by imaging, electrophysiological methods and lung ventilation) is on record as “shortens the time of recovery from neuroparalysis”. Moreover, the “efficacy in mice injected with venoms” value in data set [5] (venoms of three Bungarus species, Oxyuranus scutellatus, Micrurus nigrocinctus, Vipera ammodytes and V. aspis) is listed as “very effective”. For the same compound, in data set [6], the “blood brain barrier crossing” value was “does not cross the blood brain barrier” and the toxicity entry was “non-toxic”. For the compound `CCCCCCCC/C=C\CCCCCCCC(=O)NCCc1c[nH]c2ccc(O)cc12` [OS, oleoyl serotonin], the “activity on other receptors and channels” value in data set [7] is given as “does not show significant activity”. Further, the “effect on brain-related neurological functions” value in the data set on mice is reported as “anxiolytic effect”. Besides, on CB1 receptors, the “mode of action on CB1 receptors” value is “competitive antagonist”. Besides, the “mode of action on CB2 receptors” value at CB2 receptors is recorded as “non-competitive blocker”.

For the compound `C=C1CCCC2=NC[C@H](C)[C@@H](C)C[C@@]23CCC(C(=O)O)=C[C@@H]3[C@@H]2O[C@]3(C[C@H]4CCC[C@@]5(CC[C@@]6(O[C@@H](CC[C@@]6(C)O)C1)O5)O4)C[C@@H](C)[C@@H](O)[C@H]2O3` [PnTX-A], the “type of inhibition of α12βεδ nAChRs” value in data set [4] was “competitive and reversible inhibitors”.

Regarding `C=CC1=C[C@@H]2[C@@H]3O[C@]4(C[C@H]5CCC[C@@]6(CC[C@@]7(O[C@@H](CC[C@@]7(C)O)CC(=C)CCCC7=NC[C@H](C)[C@@H](C)C[C@@]72CC1)O6)O5)C[C@@H](C)[C@@H](O)[C@H]3O4` [PnTX-G], the “type of inhibition of α12βεδ nAChRs” value in [4] is “competitive and reversible inhibitors”. Turning to `C=C(C)[C@]12C[C@@H](C)[C@@]34O[C@](Cc5ccccc5)(O[C@@H]1[C@@H]3C=C(COC(=O)Cc1ccc(O)c(OC)c1)C[C@]1(O)C(=O)C(C)=C[C@@H]41)O2` [RTX, resiniferatoxin], on human mitoTRPV1, the “mitochondrial Ca2+ efflux” value is “enhanced a Ca^2+ efflux from the mitochondria” and the mitochondrial temperature result is recorded as “significant reduction in the mitochondrial temperature”.
